How the values were obtained:
pAkt(T308) = assay: In-cell Western assay, pAkt(T308), PC3 cells; type: cell-based; settings: Homo sapiens, PC-3, 2 hours incubation
Experimental: Cells from human prostate cancer cell line PC3 (American Type Culture Collection (ATCC), Manassas, Va. 20108 USA) were seeded at an optimal density of 22,000 cell/well in 96-well plates containing Ham's F12K medium (90 μL) and incubated overnight. The compound dilutions were carried out in 100% DMSO followed by a dilution in the medium. Test compounds were added in serial dilutions to the wells and incubated for 2 hours. The cells were washed and fixed with 4% paraformaldehyde. After incubation at room temperature for 1 hour in the dark, blocking was done for 2 hours at room temperature. Primary antibodies for pAkt(S473) ([…] phosphorylated at serine 473), pAkt(T308) (Akt phosphorylated at threonine 308) and for pS6RP (S235/236) (phosphorylated at serine 235/236) (commercially available from Cell Signaling Technology®, whose protocol was followed for the in-cell western assay, were diluted to the required concentration and added to the corresponding wells followed by overnight incubation at 4° C. Eu-labeled rabbit (PE) (Perkin-Elmer USA catalog #AD0106) secondary antibody was added and incubated for 2 hours at room temperature. Delfia® enhancement solution (cat #1244-105, Perkin Elmer USA) was subsequently added to the plate before taking the reading at 615 nm with excitation wavelength of 340 nm, after which 0.5 μg/mL of Hoechst® 33258 dye (Catalog #86140-5, Sigma) was added to the plate and fluorescence emission was read at 460 nm with 355 nm excitation, to evaluate the correction factor. IC50 values were calculated using a sigmoidal dose-response curve fit in GraphPad Prism® v5 software.

mTOR kinase = biological target: T1, mTOR kinase (Homo sapiens, UniProt P42345); assay: mTOR kinase TR-FRET assay; type: biochemical; settings: 20 μM ATP
T1 construct: purchased Millipore, USA
Outline: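 Test compounds were pre-incubated 60 min with mTOR (5 ng), then ULight-p70 S6K (Thr389) peptide (50 nM) and ATP (20 μM) were added in HEPES 50 mM pH 7.5, EGTA, MnCl2 3 mM. After 60 min at room temperature, EDTA stop and Eu-anti-phospho antibody TR-FRET (665/615 nm) gave IC50 from sigmoidal variable-slope fits.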

PI3Kα (wild-type) = biological target: T2, PI3Kα (wild-type) (Homo sapiens, UniProt P42336); assay: PI3 Kinase TR-FRET assay, PI3Kα (wild-type); type: biochemical; settings: wild-type P110/P85α, 10 μM ATP
T2 construct: made in house; host or cells: SF9 insect cells
Outline: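 Sf9-expressed, Ni-purified p110/p85α (5 ng) with PIP2 was preincubated with compound for 60 min at room temperature in buffer with 40 mM MgCl2 and 5 mM DTT. The reaction ran 30 min at room temperature with 10 μM PIP2 and 10 μM ATP. The TR-FRET 665/615 nm ratio was used to derive IC50 from dose-response curves.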

PC3 cells = assay: XTT assay for cell viability, PC3 cells; type: cell-based; settings: Homo sapiens, PC-3; PC3 cell proliferation, 96 hours
Experimental: Using a commercial kit from Sigma Aldrich (Catalog #X34251) and following its protocol, PC3 cells in the log phase of growth were employed and seeded at an optimal density of 1000 cell/well on to 96 well plates and incubated for 24 hours followed by the addition of compounds of formula (I) in serial dilutions. Compound dilutions were made in DMSO. The cells were incubated with the compounds of formula (I) for 96 hours and XTT tetrazolium dye (Sigma, USA) was subsequently added and incubated at 37° C. After the color formation, absorbance was measured at 465 nm in a Spectramax® Gemini spectrophotometer. EC50 values were calculated using a sigmoidal dose response curve fit in GraphPad Prism® v5 software. The tested compounds of formula (I) which caused inhibition of PC3 cell proliferation as determined by this assay protocol are shown in Table 2.

T2 sequence (P42336 whole entry, species assumed): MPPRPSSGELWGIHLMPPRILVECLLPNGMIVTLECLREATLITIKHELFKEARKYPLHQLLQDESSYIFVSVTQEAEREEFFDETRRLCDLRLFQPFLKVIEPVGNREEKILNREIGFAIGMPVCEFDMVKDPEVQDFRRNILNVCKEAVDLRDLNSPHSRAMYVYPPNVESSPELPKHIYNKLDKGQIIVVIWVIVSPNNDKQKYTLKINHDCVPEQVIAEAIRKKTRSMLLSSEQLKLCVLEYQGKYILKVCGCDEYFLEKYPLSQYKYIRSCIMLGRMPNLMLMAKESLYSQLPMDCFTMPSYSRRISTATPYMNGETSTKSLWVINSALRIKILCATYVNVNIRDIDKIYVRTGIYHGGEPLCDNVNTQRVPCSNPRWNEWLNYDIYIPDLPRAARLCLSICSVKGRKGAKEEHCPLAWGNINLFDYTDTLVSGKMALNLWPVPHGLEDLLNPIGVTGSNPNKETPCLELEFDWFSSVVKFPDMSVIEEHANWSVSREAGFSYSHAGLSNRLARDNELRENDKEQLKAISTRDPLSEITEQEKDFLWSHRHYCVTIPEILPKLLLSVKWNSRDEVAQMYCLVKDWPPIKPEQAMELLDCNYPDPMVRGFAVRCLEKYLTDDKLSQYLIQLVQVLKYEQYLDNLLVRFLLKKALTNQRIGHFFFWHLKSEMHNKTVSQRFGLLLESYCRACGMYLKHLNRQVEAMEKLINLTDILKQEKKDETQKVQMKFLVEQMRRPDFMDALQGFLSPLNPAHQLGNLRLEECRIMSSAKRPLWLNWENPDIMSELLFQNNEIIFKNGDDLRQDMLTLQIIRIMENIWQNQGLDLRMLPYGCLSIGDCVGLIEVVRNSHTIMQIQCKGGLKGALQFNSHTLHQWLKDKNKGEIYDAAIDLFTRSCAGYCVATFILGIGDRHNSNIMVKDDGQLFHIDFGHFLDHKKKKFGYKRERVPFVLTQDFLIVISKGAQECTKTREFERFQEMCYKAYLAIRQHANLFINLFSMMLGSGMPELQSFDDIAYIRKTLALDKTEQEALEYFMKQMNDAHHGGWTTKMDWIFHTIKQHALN
T2 sequence (P27986 whole entry partner, species assumed): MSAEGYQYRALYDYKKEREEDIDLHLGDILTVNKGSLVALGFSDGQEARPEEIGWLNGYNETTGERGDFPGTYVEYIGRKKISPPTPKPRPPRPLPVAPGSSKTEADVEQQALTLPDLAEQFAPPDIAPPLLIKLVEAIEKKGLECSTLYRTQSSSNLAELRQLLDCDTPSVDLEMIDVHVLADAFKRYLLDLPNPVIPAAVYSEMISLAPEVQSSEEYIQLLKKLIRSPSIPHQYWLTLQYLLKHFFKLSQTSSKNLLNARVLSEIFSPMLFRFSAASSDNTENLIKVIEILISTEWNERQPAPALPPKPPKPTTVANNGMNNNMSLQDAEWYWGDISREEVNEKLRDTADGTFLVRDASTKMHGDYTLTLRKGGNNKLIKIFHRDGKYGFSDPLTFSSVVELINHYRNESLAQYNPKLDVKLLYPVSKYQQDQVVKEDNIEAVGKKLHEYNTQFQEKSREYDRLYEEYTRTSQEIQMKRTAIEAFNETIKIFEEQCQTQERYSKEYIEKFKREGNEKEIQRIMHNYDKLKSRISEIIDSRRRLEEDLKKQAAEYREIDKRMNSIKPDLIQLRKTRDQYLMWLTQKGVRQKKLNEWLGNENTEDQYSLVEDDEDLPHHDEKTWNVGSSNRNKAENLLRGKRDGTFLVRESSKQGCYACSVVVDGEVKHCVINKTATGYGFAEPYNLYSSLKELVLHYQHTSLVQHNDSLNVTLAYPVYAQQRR
T1 sequence (P42345 1362-2549 limits assumed): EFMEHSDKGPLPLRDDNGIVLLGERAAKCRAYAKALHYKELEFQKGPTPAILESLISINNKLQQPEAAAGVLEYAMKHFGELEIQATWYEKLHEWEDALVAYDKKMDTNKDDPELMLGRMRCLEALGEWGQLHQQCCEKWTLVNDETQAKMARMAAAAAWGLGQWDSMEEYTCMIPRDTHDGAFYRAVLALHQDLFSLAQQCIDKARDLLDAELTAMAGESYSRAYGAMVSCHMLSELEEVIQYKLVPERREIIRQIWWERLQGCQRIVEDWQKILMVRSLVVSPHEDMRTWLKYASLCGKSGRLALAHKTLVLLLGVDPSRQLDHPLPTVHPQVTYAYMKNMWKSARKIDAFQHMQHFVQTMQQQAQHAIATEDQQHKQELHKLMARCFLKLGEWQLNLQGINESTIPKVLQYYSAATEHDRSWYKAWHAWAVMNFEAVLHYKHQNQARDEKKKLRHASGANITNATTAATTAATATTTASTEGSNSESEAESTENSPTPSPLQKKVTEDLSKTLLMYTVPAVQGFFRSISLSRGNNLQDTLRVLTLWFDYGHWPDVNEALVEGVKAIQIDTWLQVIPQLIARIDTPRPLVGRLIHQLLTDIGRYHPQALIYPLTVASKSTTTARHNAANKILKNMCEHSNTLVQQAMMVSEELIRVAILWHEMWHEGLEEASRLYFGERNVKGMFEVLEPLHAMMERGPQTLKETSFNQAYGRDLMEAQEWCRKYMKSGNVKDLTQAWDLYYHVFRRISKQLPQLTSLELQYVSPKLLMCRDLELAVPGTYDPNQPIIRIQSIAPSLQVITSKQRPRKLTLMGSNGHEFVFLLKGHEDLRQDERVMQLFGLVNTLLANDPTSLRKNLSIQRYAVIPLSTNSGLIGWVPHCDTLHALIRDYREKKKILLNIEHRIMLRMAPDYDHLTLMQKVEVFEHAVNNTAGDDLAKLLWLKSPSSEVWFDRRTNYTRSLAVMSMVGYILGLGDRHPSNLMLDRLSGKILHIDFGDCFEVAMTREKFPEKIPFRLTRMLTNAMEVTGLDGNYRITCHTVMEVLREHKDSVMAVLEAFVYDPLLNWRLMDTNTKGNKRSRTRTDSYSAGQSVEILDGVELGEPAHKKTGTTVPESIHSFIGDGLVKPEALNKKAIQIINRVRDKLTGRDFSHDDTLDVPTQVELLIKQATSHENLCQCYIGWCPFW

Row | Compound | IC50 (pAkt(T308)) [nM] | IC50 (mTOR kinase) [nM] | IC50 (PI3Kα (wild-type)) [nM] | IC50 (PC3 cells) [nM]
1 | CN1CCN(C(=O)c2ccc(-c3cnc4c(N5CCOCC5)nc(-c5cnc(N)nc5)nc4c3)o2)CC1 [Example 5, (5-(2-(2-Aminopyrimidin-5-yl)-4-morpholinopyrido[3,2-d]pyrimidin-7-yl)furan-2-yl)(4-methylpiperazin-1-yl)methanone] | 100 to 500 | 50 to 200 | < 50 | –
2 | Nc1ncc(-c2nc(N3CCOCC3)c3ncc(-c4cccc(NS(=O)(=O)c5ccc(F)cc5)c4)cc3n2)cn1 [Example 8, N-(3-(2-(2-aminopyrimidin-5-yl)-4-morpholinopyrido[3,2-d]pyrimidin-7-yl)phenyl)-4-fluorobenzenesulfonamide] | 100 to 500 | < 50 | < 50 | 501 to 5000
3 | Nc1ncc(-c2nc(N3CCOCC3)c3ncc(-c4cccc(NC(=O)CN5CCC(O)CC5)c4)cc3n2)cn1 [Example 9, N-(3-(2-(2-Aminopyrimidin-5-yl)-4-morpholinopyrido[3,2-d]pyrimidin-7-yl)-phenyl)-2-(4-hydroxypiperidin-1-yl)acetamide] | < 100 | < 50 | < 50 | 100 to 500
4 | CNC(=O)Nc1ccc(-c2cnc3c(N4CCOCC4)nc(-c4cnc(N)nc4)nc3c2)cc1 [Example 29, 1-(4-(2-(2-amino-pyrimidin-5-yl)-4-morpholinopyrido[3,2-d]pyrimidin-7-yl)phenyl)-3-methylurea] | 100 to 500 | < 50 | < 50 | 100 to 500
5 | Nc1ncc(-c2nc(N3CCOCC3)c3ncc(-c4cncc(NC(=O)C5CC5)c4)cc3n2)cn1 [Example 31, N-(5-(2-(2-amino-pyrimidin-5-yl)-4-morpholinopyrido[3,2-d]pyrimidin-7-yl)pyridin-3-yl)cyclopropane-carboxamide] | 100 to 500 | < 50 | < 50 | < 100
6 | CNC(=O)c1ccc(-c2cnc3c(N4CCOCC4)nc(-c4cnc(N)nc4)nc3c2)cc1 [Example 33, 4-(2-(2-aminopyrimidin-5-yl)-4-morpholinopyrido[3,2-d]pyrimidin-7-yl)-N-methylbenzamide] | 100 to 500 | < 50 | < 50 | 100 to 500
7 | Nc1ncc(-c2nc(N3CCOCC3)c3ncc(-c4cccc(NC(=O)CO)c4)cc3n2)cn1 [Example 50, N-(3-(2-(2-amino-pyrimidin-5-yl)-4-morpholinopyrido[3,2-d]pyrimidin-7-yl)phenyl)-2-hydroxyacetamide] | 501 to 5000 | < 50 | < 50 | 100 to 500
8 | N#CCC(=O)Nc1cccc(-c2cnc3c(N4CCOCC4)nc(-c4cnc(N)nc4)nc3c2)c1 [Example 53, N-(3-(2-(2-amino-pyrimidin-5-yl)-4-morpholinopyrido[3,2-d]pyrimidin-7-yl)phenyl)-2-cyanoacetamide] | 100 to 500 | < 50 | < 50 | 100 to 500
9 | CC(=O)Nc1ccc(-c2cnc3c(N4CCOCC4)nc(-c4cnc(N)nc4)nc3c2)cc1 [Example 54, N-(4-(2-(2-amino-pyrimidin-5-yl)-4-morpholinopyrido[3,2-d]pyrimidin-7-yl)-phenyl)acetamide] | < 100 | < 50 | < 50 | 100 to 500
10 | CC(=O)Nc1cccc(-c2cnc3c(N4CCOCC4)nc(-c4cnc(N)nc4)nc3c2)c1C [Example 56, N-(3-(2-(2-amino-pyrimidin-5-yl)-4-morpholinopyrido[3,2-d]pyrimidin-7-yl)-2-methylphenyl)acetamide] | 100 to 500 | 50 to 200 | < 50 | 100 to 500
11 | Nc1ncc(-c2nc(N3CCOCC3)c3ncc(-c4cccc(NC(=O)C5CCCC5)c4)cc3n2)cn1 [Example 57, N-(3-(2-(2-amino-pyrimidin-5-yl)-4-morpholinopyrido[3,2-d]pyrimidin-7-yl)-phenyl)cyclopentane-carboxamide] | 100 to 500 | < 50 | < 50 | 501 to 5000
12 | Nc1ncc(-c2nc(N3CCOCC3)c3ncc(-c4cccc(NC(=O)c5cccnc5)c4)cc3n2)cn1 [Example 58, N-(3-(2-(2-amino-pyrimidin-5-yl)-4-morpholinopyrido[3,2-d]pyrimidin-7-yl)-phenyl)nicotinamide] | < 100 | < 50 | < 50 | 100 to 500
13 | Nc1ncc(-c2nc(N3CCOCC3)c3ncc(-c4cccc(NC(=O)c5cnccn5)c4)cc3n2)cn1 [Example 64, N-(3-(2-(2-amino-pyrimidin-5-yl)-4-morpholinopyrido[3,2-d]pyrimidin-7-yl)-phenyl)pyrazine-2-carboxamide] | 100 to 500 | – | < 50 | –
14 | CN1CCN(CC(=O)Nc2cccc(-c3cnc4c(N5CCOCC5)nc(-c5cnc(N)nc5)nc4c3)c2F)CC1 [Example 86, N-(3-(2-(2-amino-pyrimidin-5-yl)-4-morpholinopyrido[3,2-d]-pyrimidin-7-yl)-2-fluoro-phenyl)-2-(4-methyl-piperazin-1-yl)acetamide] | 501 to 5000 | 50 to 200 | < 50 | –
15 | Nc1ncc(-c2nc(N3CCOCC3)c3ncc(-c4cccc(NC(=O)C5CC5)c4F)cc3n2)cn1 [Example 115, N-(3-(2-(2-amino-pyrimidin-5-yl)-4-morpholinopyrido[3,2-d]pyrimidin-7-yl)-2-fluorophenyl)-cyclopropane-carboxamide] | – | < 50 | < 50 | 100 to 500
16 | Nc1ncc(-c2nc(N3CCOCC3)c3ncc(-c4cccc(C(=O)N5CCN(CCO)CC5)c4)cc3n2)cn1 [Example 116, (3-(2-(2-aminopyrimidin-5-yl)-4-morpholinopyrido[3,2-d]-pyrimidin-7-yl)phenyl)(4-(2-hydroxyethyl)piperazin-1-yl)methanone] | – | 201 to 10000 | < 50 | 501 to 5000
17 | CN1CCN(c2ccc(-c3cnc4c(N5CCOCC5)nc(-c5cnc(N)nc5)nc4c3)cc2NC(=O)C2CC2)CC1 [Example 117, N-(5-(2-(2-amino-pyrimidin-5-yl)-4-morpholinopyrido[3,2-d]pyrimidin-7-yl)-2-(4-methylpiperazin-1-yl)-phenyl)cyclopropane-carboxamide] | – | < 50 | < 50 | 100 to 500
18 | CC(=O)Nc1ccc(F)c(-c2cnc3c(N4CCOCC4)nc(-c4cnc(N)nc4)nc3c2)c1F [Example 123, N-(3-(2-(2-amino-pyrimidin-5-yl)-4-morpholinopyrido[3,2-d]pyrimidin-7-yl)-2,4-difluorophenyl)acetamide] | – | 50 to 200 | < 50 | 100 to 500
19 | N#CC1(C(=O)Nc2ccc(F)c(-c3cnc4c(N5CCOCC5)nc(-c5cnc(N)nc5)nc4c3)c2)CC1 [Example 124, N-(3-(2-(2-amino-pyrimidin-5-yl)-4-morpholinopyrido[3,2-d]pyrimidin-7-yl)-4-fluorophenyl)-1-cyanocyclopropane-carboxamide] | – | 50 to 200 | < 50 | > 1000
20 | N#CC1(C(=O)Nc2cccc(-c3cnc4c(N5CCOCC5)nc(-c5cnc(N)nc5)nc4c3)c2F)CC1 [Example 125, N-(3-(2-(2-amino-pyrimidin-5-yl)-4-morpholinopyrido[3,2-d]pyrimidin-7-yl)-2-fluorophenyl)-1-cyanocyclopropane-carboxamide] | – | < 50 | < 50 | 100 to 500
